Measured values as given in article PMC8745601 (International Journal of Molecular Sciences, 2021).

Columns and labels:
OCT2 = molecular target: T1, OCT2 (Homo sapiens, UniProt O15244); conditions: MDCKII-OCT2
T1 sequence (O15244 1-555): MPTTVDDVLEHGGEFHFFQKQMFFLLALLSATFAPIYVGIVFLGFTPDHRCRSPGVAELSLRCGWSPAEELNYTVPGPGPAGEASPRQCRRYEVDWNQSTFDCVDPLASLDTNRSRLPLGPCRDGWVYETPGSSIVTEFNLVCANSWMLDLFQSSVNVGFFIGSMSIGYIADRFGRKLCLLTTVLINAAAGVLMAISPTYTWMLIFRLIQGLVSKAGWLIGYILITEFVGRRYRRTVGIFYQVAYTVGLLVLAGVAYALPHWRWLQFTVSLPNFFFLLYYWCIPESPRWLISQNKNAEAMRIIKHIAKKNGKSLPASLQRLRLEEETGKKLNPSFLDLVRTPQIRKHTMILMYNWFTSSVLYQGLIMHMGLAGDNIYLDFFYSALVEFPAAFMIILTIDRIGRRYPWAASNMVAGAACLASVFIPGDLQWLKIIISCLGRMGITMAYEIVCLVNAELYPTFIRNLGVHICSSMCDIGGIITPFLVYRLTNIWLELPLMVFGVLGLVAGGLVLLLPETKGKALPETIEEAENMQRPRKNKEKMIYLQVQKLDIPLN
Method: (§1) Cellular uptake studies: For all transport studies, cells were seeded in 24-well plates and incubated in a full growth medium at an initial density of 200,000 cells/well for 3 days. Before starting each transport experiment, cells were washed with a pre-warmed (37 °C) incubation buffer [64]. […] Protein concentration of whole cell lysate was determined to quantify cell density after each experiment using the BCA assay according to the manufacturer’s instructions (Pierce, Rockford, IL, USA).
(§2) Statistical evaluation: All experiments were performed at least three times unless otherwise noted. The OATP1A2*1–*3 and OCT1-3 net uptake was obtained by subtracting the uptake into wild-type cells from that of the transporter-transfected cells. Km and Vmax were assessed using Prism 5.01 (GraphPad Software, San Diego, CA, USA). The differences in the doxorubcin uptake in OATP1A2*1–*3 and in OCT1-3 transfected cells were adjusted to the membranous transporter protein levels in the whole cell lysate. Km and Vmax are presented as arithmetic means ± standard deviation.

OCT3 = molecular target: T2, OCT3 (Homo sapiens, UniProt O75751); assay: Doxorubicin uptake into MDCKII cells stably expressing OCT3
T2 sequence (O75751 1-556): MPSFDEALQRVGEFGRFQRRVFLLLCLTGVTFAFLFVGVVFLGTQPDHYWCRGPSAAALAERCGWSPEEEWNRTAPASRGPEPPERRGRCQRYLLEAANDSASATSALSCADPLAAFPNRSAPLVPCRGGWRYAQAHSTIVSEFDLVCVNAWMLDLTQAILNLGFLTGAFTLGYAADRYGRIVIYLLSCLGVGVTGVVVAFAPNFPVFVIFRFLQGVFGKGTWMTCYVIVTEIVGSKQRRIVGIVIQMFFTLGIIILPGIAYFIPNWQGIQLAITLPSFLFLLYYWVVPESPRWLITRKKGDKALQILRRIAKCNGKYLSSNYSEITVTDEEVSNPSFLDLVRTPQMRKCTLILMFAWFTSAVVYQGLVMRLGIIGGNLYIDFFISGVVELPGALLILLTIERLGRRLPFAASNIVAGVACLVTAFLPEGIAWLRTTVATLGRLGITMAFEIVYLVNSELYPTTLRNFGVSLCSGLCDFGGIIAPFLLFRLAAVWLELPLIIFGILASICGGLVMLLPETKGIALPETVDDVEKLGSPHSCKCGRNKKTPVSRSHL
Method: as §1, §2

OCT1-3 and OATP1A2 = assay: in vitro; conditions: human, OATP1A2*1 and OCT1-3 transfected cells
Method: as §1
Protein abundance of OATP1A2*1–*3 and OCT1–3 were measured by mass spectrometry-based targeted proteomics using a validated LC-MS/MS method as recently described [65].
Statistical evaluation: All experiments were performed at least three times unless otherwise noted. The OATP1A2*1–*3 and OCT1-3 net uptake was obtained by subtracting the uptake into wild-type cells from that of the transporter-transfected cells. Km and Vmax were assessed using Prism 5.01 (GraphPad Software, San Diego, CA, USA). […] Km and Vmax are presented as arithmetic means ± standard deviation.

[1] = tested on: HEK293 cells expressing OATP1A2*1, *2, *3; conditions: OATP1A2 transfected cells; 100 µmol/L doxorubicin, 72 h; versus DMSO
Method: Resazurin-Assay: To determine cell viability, cells were seeded at a density of 10,000 cells/well in 96-well multiplates. […] Afterward, 100 µL from each well was placed in a cavity of a 96-well plate, and the fluorescence was determined on a microplate reader (TECAN infinite M200, Tecan GmbH, Crailsheim, Germany) at an excitation wavelength of 530 nm and an emission wavelength of 590 nm.

## COc1cccc2c1C(=O)c1c(O)c3c(c(O)c1C2=O)C[C@@](O)(C(=O)CO)C[C@@H]3O[C@H]1C[C@H](N)[C@H](O)[C@H](C)O1 [doxorubicin, Doxorubicin]
OCT2; doxorubicin 0–100 µmol/L, 3 min, mean ± SD
  Vmax: 37.8 ± 11.1 pmol/mg/min
OCT2; incubation time 3 min, up to 100 µmol/L
  saturation of concentration-dependent OCT2-mediated uptake: not saturated
OCT3; MDCKII-OCT3, doxorubicin 0–100 µmol/L, 3 min, mean ± SD
  Vmax: 12.9 ± 3.60 pmol/mg/min
OCT3; human, mdck
  microsomal CLint at 3 min: 0.99 ± 0.33 µL/min/mg
OCT1-3 and OATP1A2
  Km: 5 to 13 µM
[1]
  cell viability in presence of doxorubicin: significantly reduced
